Holding throughout (assay): relative viability (nuclei count vs DMSO), 5 days (fraction); higher = more cells survive
Compound in assay [1]: C1COCCN1C2=NC(=NC3=C2OC4=C3C=CC=N4)C5=CC(=CC=C5)NC(=O)C6=CN=C(C=C6)N + O=C(c1cc(Cc2n[nH]c(=O)c3ccccc23)ccc1F)N1CCN(C(=O)C2CC2)CC1 [Olaparib] (partner 8 µM)
The gist of the method:
(§1)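 After 5 days of treatment, lung cancer cells in 1536-well plates were fixed and stained in a single step (final 0.05% Triton X-100, 1% formaldehyde, 1 ug/ml Hoechst) and their nuclei counted on 4× images. Treatment had been applied by pin tool the day after seeding as one drug alone or as a fixed anchor-drug dose with five library-drug doses (not always all listed) in √10 steps. Relative viability is the nuclei count of treated wells divided by that of vehicle wells, and values are medians of duplicate plates.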

Compound in the assay “Entinostat + Decitabine”: Nc1ccccc1NC(=O)c1ccc(CNC(=O)OCc2cccnc2)cc1 [Entinostat] + Nc1ncn([C@H]2C[C@H](O)[C@@H](CO)O2)c(=O)n1 [Decitabine] (partner 2 µM)
A digest of the protocol:
as §1

Compound in the assay “SGI-1776 + Foretinib”: CN1CCC(CNc2ccc3ncc(-c4cccc(OC(F)(F)F)c4)n3n2)CC1 [SGI-1776] + COc1cc2c(Oc3ccc(NC(=O)C4(C(=O)Nc5ccc(F)cc5)CC4)cc3F)ccnc2cc1OCCCN1CCOCC1 [Foretinib] (partner 0.25 µM)
A digest of the protocol:
as §1

Compound in the assay “SGI-1776 + Palbociclib”: CN1CCC(CNc2ccc3ncc(-c4cccc(OC(F)(F)F)c4)n3n2)CC1 [SGI-1776] + CC(=O)c1c(C)c2cnc(Nc3ccc(N4CCNCC4)cn3)nc2n(C2CCCC2)c1=O [Palbociclib] (partner 0.5 µM)
The gist of the method:
as §1

For NCI-H838, the relative viability was 0.86 in assay [1] (first compound 0.02 µM); 0.812 in assay [1] (first compound 0.06325 µM); 0.743 in assay [1] (first compound 0.2 µM); 0.741 in assay [1] (first compound 0.6325 µM); 0.353 in assay [1] (first compound 2 µM); 0.484 in the assay with Entinostat + Decitabine (first compound 0.02 µM). In addition, the relative viability came to 0.541 with Entinostat + Decitabine (first compound 0.06325 µM); 0.477 in the assay with Entinostat + Decitabine (first compound 0.2 µM); 0.431 with Entinostat + Decitabine (first compound 0.6325 µM); 0.341 with Entinostat + Decitabine (first compound 2 µM); 1.08 with SGI-1776 + Foretinib (first compound 0.08 µM); 1.05 with SGI-1776 + Foretinib (first compound 0.8 µM). Moreover, the relative viability was 1.05 in the assay with SGI-1776 + Foretinib (first compound 2.53 µM); 0.669 with SGI-1776 + Foretinib (first compound 8 µM); 0.228 with SGI-1776 + Palbociclib (first compound 0.08 µM); 0.222 in the assay with SGI-1776 + Palbociclib (first compound 0.8 µM); 0.204 in the assay with SGI-1776 + Palbociclib (first compound 2.53 µM); 0.155 with SGI-1776 + Palbociclib (first compound 8 µM).
For NCI-H1355, the relative viability was determined as 0.736 in assay [1] (first compound 0.02 µM); 0.886 in assay [1] (first compound 0.06325 µM); 0.781 in assay [1] (first compound 0.2 µM); 0.757 in assay [1] (first compound 0.6325 µM); 0.572 in assay [1] (first compound 2 µM); 0.356 with Entinostat + Decitabine (first compound 0.02 µM). The relative viability with Entinostat + Decitabine (first compound 0.06325 µM) came to 0.335; with Entinostat + Decitabine (first compound 0.2 µM) it was 0.3; with Entinostat + Decitabine (first compound 0.6325 µM) it was 0.315; with Entinostat + Decitabine (first compound 2 µM) it was 0.266; with SGI-1776 + Foretinib (first compound 0.08 µM), 0.953; with SGI-1776 + Foretinib (first compound 0.8 µM), 1.02. Besides, the relative viability in the assay with SGI-1776 + Foretinib (first compound 2.53 µM) is 0.958; in the assay with SGI-1776 + Foretinib (first compound 8 µM), 0.919; with SGI-1776 + Palbociclib (first compound 0.08 µM), 0.419; in the assay with SGI-1776 + Palbociclib (first compound 0.8 µM), 0.433; with SGI-1776 + Palbociclib (first compound 2.53 µM), 0.413; in the assay with SGI-1776 + Palbociclib (first compound 8 µM) it was 0.345.
With NCI-H1395, the relative viability in assay [1] (first compound 0.02 µM) was 0.473; in assay [1] (first compound 0.06325 µM) it was 0.427; in assay [1] (first compound 0.2 µM), 0.422; in assay [1] (first compound 0.6325 µM), 0.461; in assay [1] (first compound 2 µM), 0.377; in the assay with Entinostat + Decitabine (first compound 0.02 µM) it was 0.693. Also, the relative viability with Entinostat + Decitabine (first compound 0.06325 µM) came out at 0.726; with Entinostat + Decitabine (first compound 0.2 µM), 0.626; with Entinostat + Decitabine (first compound 0.6325 µM) it was 0.556; in the assay with Entinostat + Decitabine (first compound 2 µM), 0.492; in the assay with SGI-1776 + Foretinib (first compound 0.08 µM), 1.05; with SGI-1776 + Foretinib (first compound 0.8 µM), 0.975. For the same cell line, the relative viability with SGI-1776 + Foretinib (first compound 2.53 µM) turned out to be 1.01; in the assay with SGI-1776 + Foretinib (first compound 8 µM) it was 0.857; in the assay with SGI-1776 + Palbociclib (first compound 0.08 µM) it was 0.615; with SGI-1776 + Palbociclib (first compound 0.8 µM) it was 0.588; in the assay with SGI-1776 + Palbociclib (first compound 2.53 µM), 0.611; in the assay with SGI-1776 + Palbociclib (first compound 8 µM) it was 0.457.
Turning to NCI-H1437, the relative viability in assay [1] (first compound 0.02 µM) was 0.645; in assay [1] (first compound 0.06325 µM), 0.682; in assay [1] (first compound 0.2 µM) it was 0.613; in assay [1] (first compound 0.6325 µM) it was 0.681; in assay [1] (first compound 2 µM), 0.239; in the assay with Entinostat + Decitabine (first compound 0.02 µM), 0.522. The relative viability in the assay with Entinostat + Decitabine (first compound 0.06325 µM) is 0.436; in the assay with Entinostat + Decitabine (first compound 0.2 µM), 0.357; in the assay with Entinostat + Decitabine (first compound 0.6325 µM) it was 0.267; with Entinostat + Decitabine (first compound 2 µM), 0.217; with SGI-1776 + Foretinib (first compound 0.08 µM), 1.23; in the assay with SGI-1776 + Foretinib (first compound 0.8 µM), 1.29. Besides, the relative viability with SGI-1776 + Foretinib (first compound 2.53 µM) amounted to 1.37; with SGI-1776 + Foretinib (first compound 8 µM), 1.17; with SGI-1776 + Palbociclib (first compound 0.08 µM) it was 0.311; in the assay with SGI-1776 + Palbociclib (first compound 0.8 µM), 0.315; with SGI-1776 + Palbociclib (first compound 2.53 µM) it was 0.257; in the assay with SGI-1776 + Palbociclib (first compound 8 µM) it was 0.261.

These data come from the supplement of paper PMC10307832.
